According to patent US4985547A, “External skin care preparation” (Kao Corporation, priority 1987, dated 1991):

How the values were obtained:
skin roughness = assay: Score of skin roughness, visual ranking after two-week coating on cheeks; format: in vivo, women; conditions: average, 4 = severe
Description: (§1) Compounds Ia1 -Ia18 prepared respectively in Referential Examples 1, 2 and 3 and following the procedures of these referential examples, compounds Ib1 -Ib5 prepared respectively in Referential Example 4 and following the procedure of the referential example, compounds Id1 -Id5 prepared respectively in Referential Example 5 and following the procedure of the referential example, compounds Ie1 -Ie4 prepared respectively in Referential Examples 6-9, and conventional compounds Ic1 -Ic13, Ie5 -Ie14 and II1 -II12 were used separately. Mixtures (Invention Products 1), each of which had been formulated by mixing vaseline and the compound (I or II) at a weight ratio of 3:1, and vaseline (Comparative Product 1) were evaluated in skin conductance and skin roughness by the following methods.
(§2) Chosen as volunteers in winter were 10 women of 20-50 years of old who had skin roughness on their both cheeks. Different external skin care preparations were coated separately on the left and right cheeks of each volunteer for two weeks. On the following day of the completion of the two-week coating test, tests were conducted with respect to the following properties.
Skin roughness was observed visually and ranked in accordance with the following standard. Each score was indicated by an average value.
Score Ranking of skin roughness
0 No skin roughness was observed.
1 Slight skin roughness was observed.
2 Skin roughness was observed.
3 Rather severe skin roughness was observed.
4 Severe skin roughness was observed.
Using separately the compounds used in Example 1, external skin care preparations (emulsified cosmetic preparations) of their corresponding compositions shown below in Table 2 were formulated. Their effects for the improvement of skin roughness were evaluated in the same manner as in Example 1.

horny layer = assay: Skin conductance (water content of horny layer) after two-week coating on cheeks; format: in vivo, women; set-up: key: conductance meter reading; ≤5 = severe roughness, ≥20 = no roughness; conditions: Invention Product 1: vaseline and compound 3:1 by weight; two weeks; 20° C., 40% humidity; 5 and smaller = severe roughness, 20 or greater = no substantial roughness
Description: as §1, §2
After washing the face with warm water of 37° C., each volunteer was allowed to rest for 20 minutes in a room which was air-conditioned at 20° C. and 40% humidity. The water content of their horny layer was measured by a skin conductance meter (manufactured by IBS Company). A smaller conductance value indicates greater skin roughness. Conductance values of 5 and smaller indicate severe skin roughness. On the contrary, no substantial skin roughness is observed where this value is 20 or greater.

[1] = Invention product 2: emulsified cosmetic, compound 1.0 wt. %, glyceryl ether 2.0 wt. %, 0 = none
[2] = Invention product 3: emulsified cosmetic, compound 1.0 wt. %, arginine monocetylphosphate 2.0 wt. %, 0 = none
[3] = Invention product 4: emulsified cosmetic, compound 1.0 wt. %, polyoxyethylene (20) sorbitan stearate 1.0 and sorbitan monostearate 1.0 wt. %, 0 = none
[4] = Invention Product 1: vaseline and compound 3:1 by weight, two weeks, 0 = no roughness

Compound	Score of skin roughness (skin roughness; [1])	Score of skin roughness (skin roughness; [2])	Score of skin roughness (skin roughness; [3])	Skin conductance (horny layer)	Score of skin roughness (skin roughness; [4])
CCCCCCCCCCCCCCCCCC(=O)N(CC(=O)O)CC(O)COCCCCCCCCCCCCCC (centres unmarked) [Compound Ic1]	0.7	0.9	1.2	14	
CCCCCCCCCCCCCCCCCCOCC(O)CN(CCOCCO)C(=O)CCCCCCCCC (centres unmarked) [Compound Ib3]	0.6	0.9	1.1	14	
CCCCCCCCCCCCCCCCOCC(CN(CCOP(=O)([O-])OCC[N+](C)(C)C)C(=O)CCCCCCCCCCCCCCC)OP(=O)([O-])OCC[N+](C)(C)C (centres unmarked) [Compound Ie14]	1.2	1.4	1.9	10	
CCCCCCCCCCCCCCCCOCC(O)CN(CCOP(=O)(O)OCCNCc1ccccc1)C(=O)CCCCCCCCCCCCCCC (centres unmarked) [Compound Ie8]	0.6	1.1	1.3	15	
CCCCCCCCCCCCCCCCCCOCC(O)CN(CCCO)C(=O)CCCCCCCCC (centres unmarked) [Compound Ia5]	0.3	0.5	1.0	17	
CCCCCCCCCCCCCCCCOCC(O)CN(CCO[C@]1(C(=O)O)C[C@H](O)[C@@H](NC(C)=O)[C@H]([C@H](O)[C@H](O)CO)O1)C(=O)CCCCCCCCCCCCCCC (stereo partly drawn) [Compound Ie4, N-(3-hexadecyloxy-2-hydroxypropyl)-N-[2-O-(5-acetamido-3,5-dideoxy-α-D-glycero-β-D-galacto-2-nonuropyranosyl)ethyl]hexadecanamide]	0.2	0.2	0.4	33	0.5
CCCCCCCCCCCCCCCCOCC(O)CN(C(=O)CCCCCCCCCCCCCCC)C(CC(=O)O)C(=O)O (centres unmarked) [Compound Ic10]	0.6	0.8	1.1	15	
CCCCCCCCCCCCCCCCCC(=O)N(CCO)CC(O)CCCCCCCCCCCCCC (centres unmarked) [Compound Id1, N-(2-hydroxyethyl)-N-2-hydroxyhexa-decyloctadecanamide]	0.2	0.4	0.7	21	1.0
CCCCCCCCCCCCCCCCOCC(O)CN(CCO)CC(O)COCCCCCCCCCCCCCCCC (centres unmarked) [Compound II1]	0.1	0.3	0.8	18	
CCCCCCCCCCC(O)CN(CCO)C(=O)CCCCCCCCC (centres unmarked) [Compound Id3]	0.5	0.8	1.1	13	
CCCCCCCCCCCCCCCCCCOCC(O)CN(CC(=O)O)CC(O)COCCCCCCCCCC (centres unmarked) [Compound II7]	0.5	0.8	1.1	10	
CCCCCCCCCCCCCCCCOCC(O)CN(CCOP(=O)(O)OCCNC)C(=O)CCCCCCCCCCCCCCC (centres unmarked) [Compound Ie6]	0.8	0.9	1.4	16	
